Values of other authors in US20060193783A1, “Low dose corticosteroid composition” (priority 2003, published 2006).

Legend:
[1] = used nasally

Structure (SMILES)	solubility in water	nasal irritation [1]
CCCC1O[C@@H]2C[C@H]3[C@@H]4CCC5=CC(=O)C=C[C@]5(C)[C@H]4[C@@H](O)C[C@]3(C)[C@]2(C(=O)CO)O1 (some centres unmarked) [Budesonide]	virtually insoluble in water	
CN1CCCC1=O [N-methyl pyrrolidone]		does not cause any nasal irritation
